# “Also recorded” adds a separate entry of the source.
# How the values were obtained:
# [1] = Plasma levels of Compound 1 in the study population (pharmacokinetics); format: in vivo, human; settings: 200 mg BID oral, fed
# Protocol: (§1) The primary objective of the study was to assess the safety, tolerability, and clinical efficacy of Compound 1 at 200 mg BID via oral administration. Also evaluated was the clinical effect of Compound 1 as compared to placebo on the percent change in PASI and TLS scores from baseline to week 2 and week 4. The percent change in PASI score from baseline to week 4 was determined. TLS score was also assessed over the same time period. Also assessed was the effect of Compound 1 on biomarkers of psoriasis. Blood samples collected at predetermined time points were processed to quantify serum levels of biomarkers, including interleukin (IL)-17A, IL-17F, and IL-22 by high sensitivity methods. IL-17A, IL-17F and IL-22 are the main cytokines released by Th17 cells. Plasma levels of Compound 1 were measured to assess pharmacokinetics in the study population.
# (§2) Two study interventions were used, Compound 1 and placebo. The Compound 1 intervention comprised 4× tablets of Compound 1 50 mg twice daily, i.e. 200 mg BID, for 4 weeks. The placebo intervention was 4× tablets of placebo twice daily for 4 weeks. Tablets were administered orally.
# The interventions were used in two arms of the study. Arm 1 was the experimental arm and it involved participants receiving 200 mg of Compound BID for 4 weeks under fed conditions. […]
# [2] = test system: participants with mild to moderate psoriasis; assay: Adverse events and safety in the clinical study; format: in vivo, human
# Protocol: A double-blind, randomized, placebo-controlled phase 1 study was carried out in participants with mild to moderate psoriasis. Study participants were randomized to 200 mg twice a day (BID) of Compound 1 or placebo in 2:1 ratio (approximately 24 in the treatment group and 12 in the placebo group). The study comprised an up to 4-week screening period, and a 4-week treatment period with Compound 1 or placebo. An end-of-study visit was carried out 10±3 days after the last investigational medicinal product (IMP) administration.
# as §1, §2
# Adverse events (AEs) were reported by the participant or observed by the Investigator, and were defined as follows: • An AE is any untoward medical occurrence in a patient or clinical study participant, temporally associated with the use of study intervention, whether or not considered related to the study intervention. • NOTE: An AE can therefore be any unfavorable and unintended sign (including an abnormal laboratory finding), symptom, or disease (new or exacerbated) temporally associated with the use of study intervention.
# Events meeting the AE definition: • Any abnormal laboratory test results (hematology, clinical chemistry, or urinalysis) or other safety assessments (e.g., ECG, radiological scans, vital signs measurements), including those that worsen from baseline, considered clinically significant in the medical and scientific judgment of the Investigator (i.e., not related to progression of underlying disease), e.g.: • Symptomatic and/or • Requiring either corrective treatment or consultation, and/or • Leading to IMP discontinuation or modification of dosing, and/or • Fulfilling a seriousness criterion, and/or • Defined as an AESI • Exacerbation of a chronic or intermittent pre-existing condition including either an increase in frequency and/or intensity of the condition. • New condition detected or diagnosed after study intervention administration even though it may have been present before the start of the study. • Signs, symptoms, or the clinical sequelae of a suspected drug-drug interaction. • Signs, symptoms, or the clinical sequelae of a suspected overdose of either study intervention or a concomitant medication. • Lack of efficacy or failure of expected pharmacological action per se will not be reported as an AE or SAE. Such instances will be captured in the efficacy assessments. However, the signs, symptoms, and/or clinical sequelae resulting from lack of efficacy will be reported as AE or SAE if they fulfill the definition of an AE or SAE.
# Complications that occur during hospitalization are AEs. If a complication prolongs hospitalization or fulfills any other serious criteria, the event is serious. […]
# [3] = 200 mg BID, N = 26, placebo 33.3%
smiles,measurement,setting,value
"CN1C(=O)c2cccc(OC(F)F)c2[C@H]2C[C@@H]1c1nc3ccc(-c4cnc(C5(N)CCC5)nc4)cc3n12 [Compound 1, (7R,14R)-11-[2-(1-aminocyclobutyl)pyrimidin-5-yl]-1-(difluoromethoxy)-6-methyl-6,7-dihydro-7,14-methanobenzimidazo[1,2-b][2,5]benzodiazocin-5(14H)-one]",Mean pre-dose plasma levels / steady state (in words),[1]; Day 8 through Day 29,steady state was achieved within the first week and maintained until the end of the treatment
same,Mean pre-dose and post-dose plasma concentrations (in words),[1]; compared with previous study in healthy participants,consistent with analogous values observed at the same dose in a previous study in healthy participants; also recorded: consistent with pharmacokinetic data previously obtained in healthy participants
same,safety and tolerability (in words),[2]; 200 mg BID over 28 days,safe and well-tolerated
same,"serious AEs (SAEs), severe TEAEs or AEs of special interest (AESI)","[2]; 200 mg BID, 4 weeks","no serious AEs (SAEs), severe TEAEs or AEs of special interest (AESI); also recorded: no serious AEs, severe treatment emergent AEs, or AESI being reported; also recorded: No serious or severe adverse events were observed"
same,Number of TEAEs leading to permanent study intervention discontinuation,"[2]; 200 mg BID, 2 participants",2
same,drop-out due to CPK increase,"[2]; 200 mg BID, Day 8, linked to increased physical activity",another participant dropped out on Day 8 due to CPK increase (grade 2) assessed by the investigator as non-drug related
same,drop-out due to nausea,"[2]; 200 mg BID, Day 15",one participant dropped out on Day 15 due to nausea assessed by the investigator as drug related
same,Number of participants with Dysgeusia (PT),"[2]; 200 mg BID, N = 26, placebo 0",16
same,% of participants with Dysgeusia (PT),"[2]; 200 mg BID, N = 26, placebo 0%",61.5%
same,Number of participants with gastrointestinal disorders (SOC),"[2]; 200 mg BID, N = 26, placebo 2",8
same,Number of participants with headache (PT),"[2]; 200 mg BID, N = 26, placebo 4",8
same,Number of participants with infections and infestations (SOC),"[2]; 200 mg BID, N = 26, placebo 4",4
same,Number of participants with nervous systems disorders (SOC),"[2]; 200 mg BID, N = 26, placebo 4",19
same,% of participants with gastrointestinal disorders (SOC),"[2]; 200 mg BID, N = 26, placebo 16.7%",30.8%
same,% of participants with headache (PT),[2]; [3],30.8%
same,% of participants with infections and infestations (SOC),[2]; [3],15.4%
same,% of participants with nervous systems disorders (SOC),[2]; [3],73.1%
same,severity of TEAEs,"[2]; 200 mg BID, NCI-CTCAE grades",All TEAEs were of grade 1 or grade 2 severity and participants fully recovered
same,time for CPK value to return to baseline level,"[2]; 200 mg BID, one participant, CPK increase grade 2",7 days
same,% of participants with treatment-emergent adverse events (TEAEs),"[2]; 26 participants, 200 mg BID, 4 weeks, placebo 58.3%",92.3%
same,Number of participants with treatment-emergent adverse events (TEAEs),"[2]; out of 26 participants, 200 mg BID, 4 weeks, placebo 7 of 12",24
same,"PCSA for vital signs, ECG and laboratory parameters (in words)",[2]; scattered across placebo and Compound 1 groups,"no safety concerns based on vital signs, ECG or laboratory results; also recorded: All were considered not clinically meaningful by the investigator"
